We go through five molecules from publication PMC11475482, “The 2‐oxoglutarate/malate carrier extends the family of mitochondrial carriers capable of fatty acid and 2,4‐dinitrophenol‐activated proton transport” (Acta Physiologica (Oxford, England), 2024).

Holding throughout (experiment): planar lipid bilayer proton conductance
What all share (assay type): biochemical

For experiment [1], the target named is T1, mOGC (2‐oxoglutarate/malate carrier, SLC25A11) (Mus musculus, UniProt Q9CR62).
T1 construct: 34 kDa monomer, dimer (~69 kDa) on SDS-PAGE (dimer possibly artefact); tag not mentioned
T1 sequence (Q9CR62 2-314): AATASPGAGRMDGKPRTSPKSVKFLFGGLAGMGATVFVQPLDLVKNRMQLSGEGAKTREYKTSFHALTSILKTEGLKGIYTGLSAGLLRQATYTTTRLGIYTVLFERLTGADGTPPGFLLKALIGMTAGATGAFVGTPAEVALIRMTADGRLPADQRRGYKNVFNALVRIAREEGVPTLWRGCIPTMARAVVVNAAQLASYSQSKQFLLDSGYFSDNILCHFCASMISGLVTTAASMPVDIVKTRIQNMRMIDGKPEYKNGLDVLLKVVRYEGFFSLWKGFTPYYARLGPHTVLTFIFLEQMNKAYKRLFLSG
To be noted: read-out: % inhibition at 4 mM.

The target of experiment [2] is T1, mOGC (2‐oxoglutarate/malate carrier, SLC25A11).
The target is the same in experiment [3]. Particulars: total membrane conductance with mOGC; activator (protonophore); pH 7.34, 32°C.
Experiment [4] deals with T2, mOGC (2‐oxoglutarate/malate carrier, SLC25A11) (Mus musculus, UniProt Q9CR62, R90S).
T2 construct: 34 kDa monomer, dimer (~69 kDa) on SDS-PAGE (dimer possibly artefact); tag not mentioned
T2 sequence (Q9CR62 2-314 R90S): T1 sequence (Q9CR62 2-314) with R89S

What is called inhibition is the change of the read-out against control, counted positive when it falls. Usually IC50 stands for the midpoint of a concentration-inhibition curve.

Residue numbers refer to the chain shown, from its start.

`Nc1ncnc2c1ncn2[C@@H]1O[C@H](COP(=O)(O)OP(=O)(O)OP(=O)(O)O)[C@@H](O)[C@H]1O` [ATP]: the inhibition at 4000 µM in experiment [1] was 75%. For the molecule `O=C(O)CC(C(=O)O)c1ccccc1` (stereo not shown) [phenylsuccinate], in experiment [2], the IC50 turned out to be 1000 ± 110 µM. For the molecule `CCCCC/C=C\C/C=C\C/C=C\C/C=C\CCCC(=O)O` [arachidonic acid], the “Gm at 15 mol%” value in experiment [3] was 92.5 ± 16.5 nS/cm^2. The molecule `O=C(O)CCC(=O)C(=O)O` [2‐oxoglutarate] came in with a concentration for half-maximal inhibition (IC50) in experiment [2] of 60 ± 10 µM. For the same molecule, in experiment [4], at 2000 µM the inhibition was 19%. `O=C(O)C[C@H](O)C(=O)O` [malate]: the 50% inhibitory concentration (IC50) in experiment [2] was determined as 100 ± 60 µM. 2000 µM produced 74% inhibition in experiment [4].
